From patent US4447422A, “Penicillins and compositions containing them” (Beecham Group p.1.c., priority 1981, dated 1984)
In brackets after ≈: the same amount, converted by molar mass. Structures can show the parent of a compound that is named as a salt. Where two headings read alike, the source gives them in different places.

Tests used:
Test in all cases: antibacterial activity (MIC)
Type in all cases: cell-based
[1] = system: E coli ESS; conditions: Table 1
[2] = system: E coli JT4; conditions: Table 1
[3] = system: E coli JT425; conditions: Table 1
[4] = system: E coli NCTC 10418
[5] = system: Ps aeruginosa 10662; conditions: Table 1
[6] = system: Ps aeruginosa Dalgleish; conditions: Table 1; Ps aeruginosa Dalgleish 10^-2
[7] = system: Serratia marcescens US32; conditions: Table 1
[8] = system: Klebsiella aerogenes A; conditions: Table 1
[9] = system: Enterobacter cloacae N1; conditions: Table 1
[10] = system: P mirabilis C977; conditions: Table 1
[11] = system: P mirabilis 889; conditions: Table 1
[12] = system: P morganii; conditions: Table 1
[13] = system: P rettgeri; conditions: Table 1
[14] = system: B subtilis; conditions: Table 1
[15] = system: Staph aureus Oxford
[16] = system: Staph aureus Russell; conditions: Staphylococcus aureus, Table 1
[17] = system: N catarrhalis 1502; conditions: Table 1
[18] = system: Step faecalis I; conditions: Table 1
[19] = system: β-Haemolytic Strep CN10; conditions: Table 1
[20] = Escherichia coli, NCTC10418, Table 2, gram negative organism E. coli NCTC 10418
[21] = Staphylococcus aureus, Table 1, Staph aureus Oxford, read-out: MIC
[22] = Table 2, gram positive organism Staph. aureus Oxford
[23] = Staphylococcus aureus, Table 2, gram positive organism Staph. aureus Oxford, read-out: MIC

## CC1(C)S[C@@H]2[C@H](NC(=O)[C@H](NC(=O)c3cnc(NCc4ccccc4)nc3O)c3ccccc3)C(=O)N2[C@H]1C(=O)O [Example 1, 6β-[D-2-(2-benzylamino-4-hydroxypyrimidine-5-carbonylamino)-2-phenyl]acetamido penicillanic acid]
[1]
  MIC: < 0.02 µg/mL
[2]
  MIC: > 100 µg/mL
[3]
  MIC: 25 µg/mL (≈ 43.4 µM)
[4]; [20]
  MIC: 2.5 µg/mL (≈ 4.34 µM)
[4]; Table 1, E coli NCTC 10418
  MIC: 2.5 µg/mL (≈ 4.34 µM)
[5]; Ps aeruginosa 10662
  MIC: 5 µg/mL (≈ 8.67 µM)
[5]; Ps aeruginosa 10662 10^-2
  MIC: 2.5 µg/mL (≈ 4.34 µM)
[6]
  MIC: 50 µg/mL (≈ 86.7 µM)
[7]
  MIC: 10 µg/mL (≈ 17.3 µM)
[8]
  MIC: 50 µg/mL (≈ 86.7 µM)
[9]
  MIC: 10 µg/mL (≈ 17.3 µM)
[10]
  MIC: 2.5 µg/mL (≈ 4.34 µM)
[11]
  MIC: > 100 µg/mL
[12]
  MIC: 50 µg/mL (≈ 86.7 µM)
[13]
  MIC: 10 µg/mL (≈ 17.3 µM)
[14]
  MIC: 2.5 µg/mL (≈ 4.34 µM)
[15]; [21]
  MIC: 0.5 µg/mL (≈ 0.867 µM)
[15]; [22]
  MIC: 0.5 µg/mL (≈ 0.867 µM)
[16]
  MIC: 50 µg/mL (≈ 86.7 µM)
[17]
  MIC: < 0.02 µg/mL
[18]
  MIC: 5 µg/mL (≈ 8.67 µM)
[19]
  MIC: < 0.02 µg/mL

## CCSCCNc1ncc(C(=O)N[C@@H](C(=O)N[C@@H]2C(=O)N3[C@@H]2SC(C)(C)[C@@H]3C(=O)O)c2ccccc2)c(O)n1 [Example 2, 6β-[D-2-(2-[2-Ethylthioethyl-1-amino]-4-hydroxypyrimidine-5-carbonylamino)-2-phenyl]acetamido penicillanic acid]
[1]
  MIC: < 0.01 µg/mL
[2]
  MIC: > 500 µg/mL
[3]
  MIC: 50 µg/mL (≈ 87 µM)
[4]; [20]
  MIC: 2.5 µg/mL (≈ 4.35 µM)
[4]; Table 1, E coli NCTC 10418
  MIC: 2.5 µg/mL (≈ 4.35 µM)
[5]; Ps aeruginosa 10662
  MIC: 5 µg/mL (≈ 8.7 µM)
[5]; Ps aeruginosa 10662 10^-2
  MIC: 2.5 µg/mL (≈ 4.35 µM)
[6]
  MIC: 125 µg/mL (≈ 218 µM)
[7]
  MIC: 12.5 µg/mL (≈ 21.8 µM)
[8]
  MIC: 12.5 µg/mL (≈ 21.8 µM)
[9]
  MIC: 12.5 µg/mL (≈ 21.8 µM)
[10]
  MIC: 2.5 µg/mL (≈ 4.35 µM)
[11]
  MIC: > 500 µg/mL
[12]
  MIC: 25 µg/mL (≈ 43.5 µM)
[13]
  MIC: 12.5 µg/mL (≈ 21.8 µM)
[14]
  MIC: 1.25 µg/mL (≈ 2.18 µM)
[15]; [21]
  MIC: 1.25 µg/mL (≈ 2.18 µM)
[15]; [22]
  MIC: 1.25 µg/mL (≈ 2.18 µM)
[16]
  MIC: 125 µg/mL (≈ 218 µM)
[17]
  MIC: < 0.01 µg/mL
[18]
  MIC: 5 µg/mL (≈ 8.7 µM)
[19]
  MIC: < 0.01 µg/mL

## COCCNc1ncc(C(=O)N[C@@H](C(=O)N[C@@H]2C(=O)N3[C@@H]2SC(C)(C)[C@@H]3C(=O)O)c2ccccc2)c(O)n1 [Example 13, 6β-[D-2-(2-Methoxyethyl-1-amino]-4-hydroxypyrimidine-5-carbonylamino)-2-phenyl] acetamido penicillanic acid, disodium salt]
[4]; [20]
  MIC: 5 µg/mL
[15]; [23]
  MIC: 0.5 µg/mL

## CCSCCNc1ncc(C(=O)N[C@@H](C(=O)N[C@@H]2C(=O)N3[C@@H]2SC(C)(C)[C@@H]3C(=O)O)c2ccc(O)cc2)c(O)n1 [Example 14, 6β-[D-2-(2-[2-(ethylthio)ethyl-1-amino]-4-hydroxypyrimidine-5-carbonylamino)-2-(4-hydroxyphenyl)]acetamidopenicillanic acid, disodium salt]
[4]; [20]
  MIC: 2.5 µg/mL
[15]; [23]
  MIC: 1.2 µg/mL

## CCCNc1ncc(C(=O)N[C@@H](C(=O)N[C@@H]2C(=O)N3[C@@H]2SC(C)(C)[C@@H]3C(=O)O)c2ccccc2)c(O)n1 [Example 15, 6β-[D-2-(2-n-propylamino-4-hydroxypyrimidine-5-carbonylamino)-2-phenyl] acetamido penicillanic acid, disodium salt]
[4]; [20]
  MIC: 2.5 µg/mL
[15]; [23]
  MIC: 0.5 µg/mL

## CCCCNc1ncc(C(=O)N[C@@H](C(=O)N[C@@H]2C(=O)N3[C@@H]2SC(C)(C)[C@@H]3C(=O)O)c2ccccc2)c(O)n1 [Example 16, 6β-[D-2-(2-n-Butylamino-4-hydroxypyrimidine-5-carbonylamino)-2-phenyl] acetamido penicillanic acid, disodium salt]
[1]
  MIC: 0.02 µg/mL
[2]
  MIC: > 500 µg/mL
[3]
  MIC: 50 µg/mL
[4]; [20]
  MIC: 1.2 µg/mL
[4]; Table 1, E coli NCTC 10418
  MIC: 1.5 µg/mL
[5]; Ps aeruginosa 10662
  MIC: 5 µg/mL
[6]
  MIC: 125 µg/mL
[7]
  MIC: 12.5 µg/mL
[8]
  MIC: 12.5 µg/mL
[9]
  MIC: 5 µg/mL
[10]
  MIC: 2.5 µg/mL
[11]
  MIC: > 500 µg/mL
[12]
  MIC: 5 µg/mL
[13]
  MIC: 5 µg/mL
[14]
  MIC: 1.2 µg/mL
[15]; [21]
  MIC: 1.2 µg/mL
[15]; [22]
  MIC: 1.2 µg/mL
[16]
  MIC: 125 µg/mL
[17]
  MIC: 0.02 µg/mL
[18]
  MIC: 5 µg/mL
[19]
  MIC: 0.02 µg/mL

## CCCCNc1ncc(C(=O)N[C@@H](C(=O)N[C@@H]2C(=O)N3[C@@H]2SC(C)(C)[C@@H]3C(=O)O)c2ccc(O)cc2)c(O)n1 [Example 17, 6β-[D-2-(2-n-Butylamino-4-hydroxypyrimidine-5-carbonylamino)-2-(4-hydroxyphenyl)] acetamido penicillanic acid, disodium salt]
[4]; [20]
  MIC: 5 µg/mL
[15]; [23]
  MIC: 2.5 µg/mL

## CCCCCNc1ncc(C(=O)N[C@@H](C(=O)N[C@@H]2C(=O)N3[C@@H]2SC(C)(C)[C@@H]3C(=O)O)c2ccccc2)c(O)n1 [Example 18, 6β-[D-2-(2-n-Pentylamino-4-hydroxypyrimidine-5-carbonylamino)-2-phenyl] acetamido penicillanic acid, disodium salt]
[4]; [20]
  MIC: 1.25 µg/mL
[15]; [23]
  MIC: 1.25 µg/mL

## CCCCCCNc1ncc(C(=O)N[C@@H](C(=O)N[C@@H]2C(=O)N3[C@@H]2SC(C)(C)[C@@H]3C(=O)O)c2ccccc2)c(O)n1 [Example 19, 6β-[D-2-(2-n-hexylamino-4-hydroxypyrimidine-5-carbonylamino)-2-phenyl] acetamido penicillanic acid, disodium salt]
[4]; [20]
  MIC: 1.2 µg/mL
[15]; [23]
  MIC: 0.5 µg/mL

## CCCCCCCCNc1ncc(C(=O)N[C@@H](C(=O)N[C@@H]2C(=O)N3[C@@H]2SC(C)(C)[C@@H]3C(=O)O)c2ccccc2)c(O)n1 [Example 20, 6β-[D-2-(2-n-Octylamino-4-hydroxypyrimidine-5-carbonylamino)-2-phenyl] acetamido penicillanic acid, disodium salt]
[4]; [20]
  MIC: 10 µg/mL
[15]; [23]
  MIC: 2.5 µg/mL

## C=CCNc1ncc(C(=O)N[C@@H](C(=O)N[C@@H]2C(=O)N3[C@@H]2SC(C)(C)[C@@H]3C(=O)O)c2ccccc2)c(O)n1 [Example 21, 6β-[D-2-(2-Allylamino-4-hydroxypyrimidine-5-carbonylamino)2-phenyl] acetamido penicillanic acid, disodium salt]
[4]; [20]
  MIC: 5 µg/mL
[15]; [23]
  MIC: 0.2 µg/mL

## CCCC(=O)Nc1ncc(C(=O)N[C@@H](C(=O)N[C@@H]2C(=O)N3[C@@H]2SC(C)(C)[C@@H]3C(=O)O)c2ccccc2)c(O)n1 [Example 22, 6β-[D-2-(2-n-butyrylamino-4-hydroxypyrimidine-5-carbonylamino)-2-phenyl] acetamido penicillanic acid, disodium salt]
[4]; [20]
  MIC: 5 µg/mL
[15]; [23]
  MIC: 0.5 µg/mL

## CC1(C)S[C@@H]2[C@H](NC(=O)[C@H](NC(=O)c3cnc(NC(=O)c4ccccc4)nc3O)c3ccccc3)C(=O)N2[C@H]1C(=O)O [Example 23, 6β-[D-2-(2-benzoylamino-4-hydroxypyrimidine-5-carbonylamino)-2-phenyl] acetamido penicillanic acid, disodium salt]
[4]; [20]
  MIC: 5 µg/mL
[15]; [23]
  MIC: 0.5 µg/mL

## CC(C)COC(=O)Nc1ncc(C(=O)N[C@@H](C(=O)N[C@@H]2C(=O)N3[C@@H]2SC(C)(C)[C@@H]3C(=O)O)c2ccccc2)c(O)n1 [Example 24, 6β-D-2-(2-Isobutyloxycarbonylamino-4-hydroxypyrimidine-5-carbonylamino)-2-phenyl]acetamido penicillanic acid, disodium salt]
[4]; [20]
  MIC: 5 µg/mL
[15]; [23]
  MIC: 0.5 µg/mL

## CC1(C)S[C@@H]2[C@H](NC(=O)[C@H](NC(=O)c3cnc(NC(=O)OCc4ccccc4)nc3O)c3ccccc3)C(=O)N2[C@H]1C(=O)O [Example 25, 6β-D-2-(2-benzyloxycarbonylamino-4-hydroxypyrimidine-5-carbonylamino-2-phenyl] acetamido penicillanic acid, disodium salt]
[4]; [20]
  MIC: 2.5 µg/mL
[15]; [23]
  MIC: 0.2 µg/mL
